Source: US7067531B2, “Farnesyl transferase inhibiting 6-heterocyclylmethyl quinolinone derivatives” (priority 2000, dated 2006)

Compound	melting point
O=C(O)C(=O)O.O=c1[nH]c2ccc(C(c3nc(-c4ccccc4)cs3)n3ccnc3-c3ccccc3)cc2c(-c2cccc(Cl)c2)c1CO (centres unmarked)	149 °C
Cn1cncc1C(O)(c1ccc2c(c1)c(-c1cccc(Cl)c1)cc(=O)n2C)c1nccs1 (racemic) [Example B3 F2, (±)-4-(3-chlorophenyl)-6-[hydroxy(1-methyl-1H-imidazol-5-yl)-2-thiazolylmethyl]-1-methyl-2(1H)-quinolinone]	246 °C

Next, values leading:

melting point	Compound
248 °C	Cn1cncc1C(O)(c1ccoc1)c1ccc2c(c1)c(-c1cccc(Cl)c1)cc(=O)n2C (racemic) [Example B6, (±)-4-(3-chlorophenyl)-6-[3-furanylhydroxy(1-methyl-1H-imidazol-5-yl)methyl]-1-methyl-2(1H)-quinolinone]
197 °C	Cn1cncc1C(N)(c1ccoc1)c1ccc2c(c1)c(-c1cccc(Cl)c1)cc(=O)n2C (racemic) [Example B8, (±)-6-[amino-3-furanyl(1-methyl-1H-imidazol-5-yl)methyl]-4-(3-chlorophenyl)-1-methyl-2(1H)-quinolinone]
130 °C	Cn1cncc1C(O)(c1ccc2c(c1)c(-c1cccc(Cl)c1)cc(=O)n2C)c1nccn1C (centres unmarked) [Example B7, 4-(3-chlorophenyl)-6-[hydroxy(1-methyl-1H-imidazol-2-yl)(1-methyl-1H-imidazol-5-yl)methyl]-1-methyl-2(1H)-quinolinone]
